Series [1] concerns Peripheral blood mononuclear cells (PBMC). The experiment in a line: Cell viability assay (MTS assay) on PBMC. In kind it is cell-based, human. The note with it: two fold dilutions starting from 10^−4M, FIG. 8 / FIG. 9. The procedure: Cytotoxicity of these calixarenes were conducted using Peripheral Blood Mononucleus Cell line (PBMC) which were extracted from subjects blood (50 ml sample). Each calixarene compound was tested on three subjects out of a pool of 5 people (all caucasian females of 20-25 years of age). The extracted cell content represent 1% of the blood sample and comprised of Lymphocyte (60%) and monocytes (10-15%). The experiment was conducted by incubating the cells in a 96 well plate in triplicate with the calixarenes for 24 hours at different concentrations at an estimated concentration of 100000 cells per well.
A pipeline was designed to obtain reliable preliminary toxicology data in vitro. The pipeline was designed to allow testing of any particles of interest within a short time frame. […]
PBMC were harvested using the Ficoll method. […] The cells are then suspended in freezing media (10% DMSO in HIFCS) at 10 million cells per ml and stored as 1 ml aliquots in liquid nitrogen until it is ready for use. […]
CellTitre 96© Aqueous One Solution Cell Proliferation Assay was used to measure cell viability. […] The PHA was added to trigger activation of lymphocytes which was hypothesised that it may alter the reading of the MTS assay. […] The plate is further incubated for another 4 hours and is read through a spectrophotometer at 490 nm. […]
In general terms: Formazan colour is commonly taken as a measure of viable cells.

Series [2] concerns Peripheral blood mononuclear cells (PBMC): lymphocytes and monocytes. The experiment in a line: 5 colour flow cytometry of PBMC after exposure to calixarenes. In kind it is cell-based, human. Particulars: 24 hours, 10^-4M, 2.5×10^-5M, 3.13×10^-6M. On the procedure:
A 5 colour flow cytometry based assay was done to complement the MTS assay to provide a better snapshot of the toxicology profile of the calixarenes. Four concentrations from the MTS assay graph results (Control, 1, 1/4 dilution and 1/32 dilution) were chosen to illustrate the differences in cell profiles after the exposure of the calixarenes. 500,000 cells in 0.5 ml was cultured with 50 μL of calixarenes in polypropylene tubes (BD Falcon, Sarstedt) for 24 hours at 37° C., 5% CO2, 10° angle with the lid loosely closed. Polypropylene tube cultures were chosen as it provides better yield of monocytes.
After the 24 hour incubation, a cell count was performed to ensure there were at least 200,000 cells in each sample. The cells were centrifuged at 400G for 8 minutes and washed twice with flow buffer (10% bovine serum albumin in 1×PBS) by centrifugation at 400G for 8 minutes. An antibody cocktail of 10 μL annexin V FITC (marker used to detect apoptosis of cells), 5 μL CD3 APC (marker for detection of T-cells), 2.5 μL CD14 PECy7 (marker for detection of monocytes), 5 μL HLA-DR PE (marker for detection of cell activation) and 5 μL 7-AAD (marker to detect cell death) in each tube was prepared. The cells were resuspended in 200 μL of 1× Annexin V binding buffer. 100 μL of the resuspended cells were added to flow tubes containing the antibody cocktail and was incubated at room temperature in the dark for at least 15 minutes. The samples were then read using BD FACS Canto flow cytometer within an hour of antibody incubation. The experiment was replicated in triplicates using PBMC from different individuals.
Lymphocyte and monocyte population characteristics are summarised in the graph in FIG. 8. Lymphocyte and monocyte population numbers are based on total population while apoptotic cells, dead cells, live cells etc are based on their respective populations. Lymphocytes normally make up 60% of total population. […] However, this is most likely due to total lysis of cells, which cannot be detected by dead cell marker. Monocytes normally make up 10-15% of total population. The culturing process seems to cause most monocytes to be apoptotic due to their fragile nature.
Phosphonated calix[5]arene was tested with flow cytometry at the following concentrations; 10^-4M, 2.5×10^-5M (1 in 4 dilution) and 3.13×10^-6M (1 in 32 dilution). Lymphocyte and monocyte population characteristics are summarised in the graph in FIG. 9. Lymphocyte and monocyte population numbers are based on total population while apoptotic cells, dead cells, live cells etc are based on their respective populations. Lymphocytes normally make up 60% of total population. […] However, this is most likely due to total lysis of cells, which cannot be detected by dead cell marker. Monocytes normally make up 10-15% of total population. Culturing process seems to cause most monocytes to be apoptotic due to their fragile nature and this finding is in line with our literature review. There is a decline in monocyte numbers with increasing concentration of this calixarene.
On the technique in general: A flow cytometer gives signals particle by particle.

For series [3] the following is noted: DMSO, room temperature, FIG. 5.

On to `O=P(O)(O)c1cc2c(O)c(c1)Cc1cc(P(=O)(O)O)cc(c1O)Cc1cc(P(=O)(O)O)cc(c1O)Cc1cc(P(=O)(O)O)cc(c1O)Cc1cc(P(=O)(O)O)cc(c1O)C2` [phosphonated calix[5]arene, 5,11,17,23,29-Penta(dihydroxyphosphoryl)-31,32,33,34,35-pentahydroxycalix[5] arene], for which the “toxicity judged from cell viability (absorbance)” value in series [1] is “less toxicity with this calixarene than with sulphonated calixarenes”. Also, in series [2], the “live monocytes population numbers with increasing concentration” value is given as “seems to increase”, the “monocyte numbers with increasing concentration” value was “decline” and the “proportion of dead lymphocytes with increasing concentration” value is given as “seems to decline”.
With “5,11,17,23-Tetra(dihydroxyphosphoryl)-25,26,27,28-tetrahydroxycalix[4]arene [phosphonated calix[4]arene]”, the “toxicity judged from cell viability (absorbance)” value in series [1] is listed as “no significant sign of toxicity”. Besides, in series [2], the “monocyte numbers with increasing concentration” value is given as “slight decline” and the “proportion of dead lymphocytes with increasing concentration” value was “seems to decline”. Besides, in series [3], the “time over which nano-rafts dissociate into solvated monomeric units” value was 36 h.

Source of the values: patent US8252954B2, “Processes for the preparation of calixarene derivatives” (The Curators of The University of Missouri, priority 2007, dated 2012).
